Measured values taken from patent US11014953B2, “Trigger-activatable metabolic sugar precursors for cancer-selective labeling and targeting” (priority 2015, dated 2021).
Peptide text beside a SMILES is read from it. * marks the point of attachment. Cbz = O=C(OCc1ccccc1)*

Key:
[1] = tested on: subcutaneous LS174T tumors; test: In vivo tumor labeling after intratumoral injection of azido-sugars, DBCO-Cy5 i.v.; set-up: species or system athymic nude mice; conditions: for In vivo Cy5 fluorescence intensity of pretreated left tumors vs control right tumors: 24 h p.i. of i.v. DBCO-Cy5; for Ex vivo difference in Cy5 FI between treated tumors and control tumors: ex vivo imaging of tumors; for Western blot of tumors (azido-modified glycoproteins): intratumoral once daily for three days, tumors harvested 24 h p.i.; for Cy5 fluorescence of tumor sections (confocal imaging): tumor sections after ex vivo imaging
Experimental: In vivo tumor labeling of Ac4ManAz, Ac3ManAzEt, and Ac3ManAzNB. LS174T tumor models were established on 6 week-old athymic nude mice by subcutaneous injection of LS174T colon cancer cells (1.5 million) in HBSS/matrigel (1/1, v/v) to both flanks. When the tumors grew to 5-6 mm, Ac4ManAz or Ac3ManAzEt or Ac3ManAzNB (25 mM, 20 μL) was injected into the left tumors once daily for three days while the same amount of PBS was injected to the right tumors as control (N=3 per group). At 24 h post the last injection, DBCO-Cy5 (5 mg/kg) was i.v. injected and its biodistribution was monitored via in vivo fluorescence imaging. Prior to imaging, nude mice were placed on the sample stage equipped with anesthesia input and output ports, and imaged by the Maestro In-Vivo Fluorescence Imaging System. The excitation filter of 575-605 nm was used. The tunable emission filter was automatically stepped in 10-nm increments from 630 to 850 nm with an exposure time of 50 ms for images taken at each wavelength. Collected images were analyzed by the Maestro software, which uses spectral unmixing algorithms to subtract autofluorescence from Cy5 signals. Tumors and major organs were harvested from mice at 24 h post injection of DBCO-Cy5. Ex vivo images were collected similarly using the Maestro system. Fluorescence intensity at selected ROIs was quantified using Maestro imaging software. All values were presented as means±standard deviation (n=3).
Western blot analysis of tissues. Tumors and organs harvested from azido-sugar treated mice were transferred into glass tubes containing 2 mL of lysis buffer (1% SDS, 100 mM Tris HCl, pH 7.4), homogenized, and incubated at 4° C. for 30 min. The lysates were then centrifuged at 3000 rcf for 10 min to remove the insoluble debris. Total soluble protein concentrations were determined by BCA assay and adjusted to 5 mg/mL for each group. The rest of procedures were the same as the above-mentioned western blot analysis of cells.
Confocal imaging of tumor tissue sections. After ex vivo imaging, tumors were directly frozen in O.C.T. compound and sectioned on a cryostat (Leica CM3050S) with a thickness of 6-8 μm. DAPI in PBS (2 μg/mL) was added onto the tissue-attaching microscope slides to stain cell nucleus. After 10 min, DAPI solution was removed and tissues were washed with PBS for three times. Coverslips were mounted on the microscope slides with the addition of ProLong Gold antifade reagent, and the prepared sample was stored in dark for confocal imaging.

[2] = tested on: LS174T colon cancer cells; test: Metabolic labeling of LS174T cells with azido-sugars, azides detected by DBCO-Cy5 (confocal imaging, flow cytometry); assay type: cell-based; conditions: for Labeling efficiency of E-S on co-incubation with inhibitor: LS174T cells co-incubated with E-S and inhibitor
Experimental: General procedures for confocal imaging of azido-sugar labeled cells. Cells were seeded onto coverslips in a 6-well plate at a cell density of 40 k/well. Ac4ManAz or Ac3ManAz derivatives were added with a final concentration of 50 μM and the cells were incubated at 37° C. for 72 h. The medium was removed and washed with PBS for three times. DBCO-Cy5 (50 μM) in Opti-MEM was then added and the cells were incubated for another 1 h. Then the medium was removed and the cells were washed with PBS for three times. 4% paraformaldehyde (PFA) solution was added to fix the cells for 10 min, followed by staining of cell nucleus with DAPI (2 μg/mL) for 10 min. The coverslips were mounted on microscope slides with the addition of ProLong Gold antifade reagent, and the prepared sample was stored in dark for imaging.
General procedures for flow cytometry analysis of azido-sugar labeled cells. Cells were seeded onto coverslips in a 6-well plate at a cell density of 40 k/well. Ac4ManAz or Ac3ManAz derivatives were added and incubated with cells for 72 h. After removal of medium and multiple washing steps, DBCO-Cy5 in opti-MEM was added and incubated with cells at 37° C. for 1 h. The opti-MEM was then removed and cells were washed with PBS for three times. Cells were lifted by incubating with trypsin solution (1 mL) at 37° C. for 3 min and transferred to test tubes with addition of 4% PFA solution (0.5 mL). Twenty thousand cells per sample were analyzed by flow cytometry and data analysis was performed on the FCS Express software.
Ac3ManAzNB mediated controlled cell labeling. LS174T cells were seeded onto coverslips in a 6-well plate at a cell density of 40 k/well. Ac3ManAzNB with a final concentration of 50 μM was added. […] Cells without UV irradiation were continuously incubated for 72 h. Cell samples for confocal imaging and flow cytometry were then prepared following the above-mentioned procedures.
Ac3ManAzHQ mediated controlled cell labeling. LS174T colon cancer cells or Caco-2 colon cancer cells or human fibroblast IMR90 cells were seeded onto coverslips in a 6-well plate at a cell density of 40 k/well and allowed to attach for overnight. Ac3ManAzHQ with a final concentration of 50 μM was added, followed by the addition of curcumin with a final concentration of 50 μM. Cells treated with PBS or Ac3ManAzHQ only were used as control. After 72-h incubation, cell samples for confocal imaging and flow cytometry were prepared following the above-mentioned procedures.
(§1) E-S mediated controlled cell labeling in vitro. LS174T colon cancer cells or human fibroblast IMR90 cells were seeded onto coverslips in a 6-well plate at a cell density of 40 k/well. E-S with a final concentration of 50 μM was added, followed by the addition of either TSA (1 μM) or Z-FY-CHO (50 μM). Cells treated with PBS or E-S only were used as the control. After 72-h incubation, the medium was removed and cell samples for confocal imaging and GE-Analyzer measurements were prepared similarly to above-mentioned procedures.

LS174T cells [3] = test: Western blot analysis of LS174T cells treated with azido-sugars; assay type: cell-based
Experimental: Western blot analysis of cells treated with azido-sugars. LS174T cells were seeded onto cell culture flasks (25 cm^2 growth area) at a density of 1×10^6 cells per plate in 5 mL of media. Different azido-sugars were added and incubated with cells for 72 h. The cells were washed with PBS twice and harvested from the flasks using a cell scraper. Cells were pelleted by centrifugation at 1000 rpm for 5 min and re-suspended in 200 μL of lysis buffer (1% SDS, 100 mM Tris.HCl, pH 7.4) containing 1 tablet protease inhibitor (EDTA-free). The lysate was incubated at 4° C. for 30 min, followed by centrifugation at 3000 rcf for 10 min to remove insoluble debris. The total concentration of soluble protein in each sample was determined by bicinchoninic acid (BCA) assay and adjusted to the same concentration. Then 20 μL of the lysate was taken out and incubated with phosphine-PEG3-biotin (2 μL, 5 mM in PBS) at 37° C. for 6 h. Loading buffer was added to each sample and samples were loaded onto 10% SDS-PAGE gel after heating at 95° C. After running the gel for 100 min, proteins were transferred to Hybond P membrane, followed by blocking of the membrane with 5% bovine serum albumin (BSA) in TBST (50 mM Tris.HCl, 150 mM NaCl, 0.1% Tween 20, pH 7.4) for 2 h. The membrane was then incubated with streptavidin-HRP (diluted 1:2000 in TBST) overnight at 4° C., rinsed with TBST for three times and developed by ECL Western Blotting Substrate. For fluorescent visualization of protein bands, 20 μL of cell lysate was directly incubated with DBCO-Cy3 solution for 3 h. After the gel running and membrane transfer, protein bands were visualized using an Image Quant LAS 4010 system with a Cy3/Cy3 (excitation/emission) channel.

LS174T cells [4] = test: Uptake mechanism of DBCO-Cy5 in E-S pretreated LS174T cells; assay type: cell-based
Experimental: Uptake mechanism of DBCO-Cy5 or D-D in vitro. LS174T cells were seeded onto a tissue culture dish with cover glass bottom, and incubated with E-S (50 μM) for three days. After multiple washing with PBS, Lysotracker green in fresh medium was added and incubated for 1 h. Then DBCO-Cy5 was added and cells were further incubated for 1 h. Hoechst 33342 (10 μg/mL) and CellMask orange plasma membrane stain (1 μg/mL) were added to stain cell nucleus and cell membrane, respectively for 10 min. After removing the medium and washing with PBS, cells were further incubated at 37° C. At different time points (1 h, 3 h, 6 h, 12 h, and 24 h), cells were imaged under a fluorescence microscope to monitor the uptake of DBCO-Cy5. Cells without E-S pretreatment were used as control. For live cell imaging of D-D treated cells, CellMask deep red plasma membrane stain was used to stain cell membrane and lysosomes were not stained to avoid the interference over fluorescence signals of D-D.

[5] = tested on: MDA-MB-231 breast cancer cells; test: E-S mediated in vitro labeling of MDA-MB-231 cells; assay type: cell-based
Experimental: as §1, with “in vitro” for “controlled cell”, “of MDA-MB-231 cells. MDA-MB-231 breast” for “in vitro. LS174T colon”, “cancer” for “cancer cells or human fibroblast IMR90”, “as” for “as the”, “IN cell Analyzer” for “GE-Analyzer”, “following the” for “similarly to”

[6] = tested on: cellular HDAC/CTSL activity; test: Inhibitory effect of TSA and Z-FY-CHO on cellular HDAC/CTSL activity (Naph-Lys reporter); assay type: cell-based
Experimental: Detection of cellular HDAC/CTSL activity. Cells were seeded in a 24-well plate at a cell density of 8 k/well, and were allowed to attach for overnight. Naph-Lys (50 μM) in OptiMEM was added and incubated with cells for different time (30 min, 1 h, 2 h, and 4 h). After removal of the OptiMEM and washing with PBS twice, cells were fixed with 4% PFA for 10 min and stained with DAPI (2 ng/mL) for 10 min. Average fluorescence intensity of cells were measured on a GE-Analyzer using DAPI and FITC channels. The DAPI channel was used for determining cell number per well. The FITC channel was used to determine the total fluorescence intensity of released Naph-NH2 per well. Data were presented with the average fluorescence intensity per cell.
Inhibitory effect of TSA and Z-FY-CHO on cellular HDAC/CTSL activity. TSA and Z-FY-CHO are known to be the inhibitor of HDAC and CTSL, respectively. To study their inhibitory effect, cells were seeded in a 24-well plate at a cell density of 8 k/well, and were allowed to attach for overnight. Cells were then divided into 4 groups: group 1 cells were added Naph-Lys (50 μM); group 2 cells were added Naph-Lys (50 μM)+TSA (1 μM); group 3 cells were added Naph-Lys (50 μM)+Z-FY-CHO (20 μM); group 4 cells were added PBS as negative control. […] Average fluorescence intensity of cells were measured on a GE-Analyzer using DAPI and FITC channels.

| SMILES | In vivo Cy5 fluorescence intensity of pretreated left tumors vs control right tumors [1] | Ex vivo difference in Cy5 FI between treated tumors and control tumors [1] | Western blot of tumors (azido-modified glycoproteins) [1] | Cy5 fluorescence of tumor sections (confocal imaging) [1] | Labeling efficiency of E-S on co-incubation with inhibitor [2] | Labeling efficiency of E-S in the presence of inhibitor [5] | Turn-on fluorescence intensity of Naph-Lys in the presence of the inhibitor [6] | also measured |
| --- | --- | --- | --- | --- | --- | --- | --- | --- |
| CCOC1O[C@H](COC(C)=O)[C@@H](OC(C)=O)[C@H](OC(C)=O)[C@@H]1NC(=O)CN=[N+]=[N-] (stereo partly drawn) [Ac3ManAzEt] | negligible Cy5 retention enhancement | no significant difference | the same endogenous protein bands as PBS group | negligible Cy5 fluorescence |  |  |  | Cy5 fluorescence on the cell surface (CLSM) ([2]; LS174T cells, 50 μM azido-sugar three days (72 h), then DBCO-Cy5 1 h): negligible Cy5 fluorescence on the cell surface; Western blot of azido-glycoproteins (biotinylated with phosphine-PEG3-biotin) (LS174T cells [3]; 72 h): only two endogenous biotinylated proteins |
| CC(=O)OC[C@H]1OC(OCc2ccccc2[N+](=O)[O-])[C@@H](NC(=O)CN=[N+]=[N-])[C@@H](OC(C)=O)[C@@H]1OC(C)=O (stereo partly drawn) [Ac3ManAzNB] | negligible Cy5 retention enhancement | no significant difference | the same endogenous protein bands as PBS group | negligible Cy5 fluorescence |  |  |  | Cy5 fluorescence on the cell surface (CLSM) ([2]; LS174T cells, three days, with UV irradiation (10 min, 10 mW/cm^2)): strong Cy5 fluorescence; Cy5 fluorescence on the cell surface (CLSM) ([2]; LS174T cells, three days, without UV irradiation): negligible Cy5 fluorescence on cell surface; Cy5 fluorescence by flow cytometry ([2]; LS174T cells, with UV irradiation compared with Ac3ManAzNB only): significantly enhanced Cy5 fluorescence; Western blot of azido-glycoproteins (LS174T cells [3]; with UV): a series of protein bands; Western blot of azido-glycoproteins (LS174T cells [3]; without UV): the same two endogenous biotinylated protein bands as PBS group |
| CC1(C)C(/C=C/C=C/C=C2/N(CCCCCC(=O)NCCC(=O)N3Cc4ccccc4C#Cc4ccccc43)c3ccc(S(=O)(=O)O)cc3C2(C)C)=[N+](CCCS(=O)(=O)[O-])c2ccc(S(=O)(=O)O)cc21 [DBCO-Cy5] |  |  |  |  |  |  |  | Further incubation time at which DBCO-Cy5 completely disappeared from the cell membrane (LS174T cells [4]; E-S pretreated LS174T cells): 12 h; Cy5 signal in control cells without E-S pretreatment (passive uptake) (LS174T cells [4]; LS174T, DBCO-Cy5 1 h): Negligible Cy5 signal |
| CC(/C=C/C(=O)NO)=C\[C@@H](C)C(=O)c1ccc(N(C)C)cc1 [TSA, Trichostatin A] |  |  |  |  | greatly reduced | significantly decreased the labeling efficiency | greatly decreased |  |
| O=C[C@H](Cc1ccc(O)cc1)NC(=O)[C@H](Cc1ccccc1)NC(=O)OCc1ccccc1 [Z-FY-CHO] (Cbz-Phe-Tyr-aldehyde) |  |  |  |  | greatly reduced | significantly decreased the labeling efficiency | greatly decreased |  |
| COc1cc(/C=C/C(=O)CC(=O)/C=C/c2ccc(O)c(OC)c2)ccc1O [curcumin] |  |  |  |  |  |  |  | Labeling efficiency of Ac3ManAzHQ on co-incubation with NQO1 inhibitor ([2]; LS174T cells, compared with Ac3ManAzHQ only): significant reduction of labeling efficiency |
